In series [1] the target is T1, human active recombinant p38α-6His tagged (Homo sapiens, UniProt Q16539).
T1 construct: 6His
As to the kind of experiment: p38 Alpha Enzyme Assay (AlphaScreen, biotinylated-ATF2 substrate). In kind it is biochemical. The conditions noted are these: pre-incubated 4 hours at 37° C., reaction initiated with ATP; 0.5 nM enzyme; read-out: p38 pIC50 (converted).

Series [2] can be described thus: GVS (Dynamic Vapour Sorption) determination. In kind it is physicochemical. The conditions noted are these: at 80% RH (±0.2%); crystalline polymorph A. As to the method:
GVS profiles were measured using a Dynamic Vapour Sorption DVS-1 instrument. The solid sample ca. 1-5 mg was placed into a glass vessel and the weight of the sample was recorded during a dual cycle step method (40 to 90 to 0 to 90 to 0% relative humidity (RH), in steps of 10% RH).

T1 sequence (Q16539 whole entry): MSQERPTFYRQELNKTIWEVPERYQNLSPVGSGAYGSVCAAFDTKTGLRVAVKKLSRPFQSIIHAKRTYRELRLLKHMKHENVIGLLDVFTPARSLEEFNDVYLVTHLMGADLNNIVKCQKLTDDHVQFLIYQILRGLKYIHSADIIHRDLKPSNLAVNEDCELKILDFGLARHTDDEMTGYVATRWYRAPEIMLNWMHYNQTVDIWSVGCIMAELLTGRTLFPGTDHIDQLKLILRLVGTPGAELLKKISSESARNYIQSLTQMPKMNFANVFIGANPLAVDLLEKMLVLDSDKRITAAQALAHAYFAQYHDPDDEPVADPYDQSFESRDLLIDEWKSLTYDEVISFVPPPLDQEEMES

On to `Cc1ccc(C(=O)NC2CC2)cc1-c1ccc2c(=O)n(Cc3ccccc3)cc(C(=O)NCCN(C)C)c2c1` [Example 47, 2-Benzyl-6-(5-(cyclopropylcarbamoyl)-2-methylphenyl)-N-(2-(dimethylamino)ethyl)-1-oxo-1,2-dihydroisoquinoline-4-carboxamide], for which, in series [1], the IC50 was 1.26 nM. This molecule also gave a GVS weight increase in series [2] of 0.9 % w/w.

Take `Cc1c(F)cc(C(=O)NC2CC2)cc1-c1ccc2c(=O)n(CC3CC3)cc(CN3CCNC(CO)CC3)c2c1` (stereo not shown) [Example 127, N-Cyclopropyl-3-[2-cyclopropylmethyl-4-(5-hydroxymethyl-[1,4]diazepan-1-ylmethyl)-1-oxo-1,2-dihydro-isoquinolin-6-yl]-5-fluoro-4-methyl-benzamide]: in series [1], the IC50 is 0.158 nM.

For `Cc1c(F)cc(C(=O)NC2CC2)cc1-c1ccc2c(=O)n(CC3CC3)cc(CN3CCC[C@H]3CN)c2c1` [Example 128, (S)-3-(4-((2-(Aminomethyl)pyrrolidin-1-yl)methyl)-2-(cyclopropylmethyl)-1-oxo-1,2-dihydroisoquinolin-6-yl)-N-cyclopropyl-5-fluoro-4-methylbenzamide], the IC50 in series [1] is 0.316 nM.
